Columns and labels:
MIA PaCa-2 cells [1] = assay: LC3 puncta / LC3-LAMP1 immunofluorescence; type: cell-based, human; conditions: MIA PaCa-2 cells, 10, 20, 40, 80 μM HCQ
Experimental: Cell imaging. Immunostaining was performed as described^44. Cells were cultured on coverslips and fixed in 4% PFA for 10 min at room temperature. After washing twice in PBS, cells were incubated in PBS containing 10% FBS to block nonspecific sites of antibody adsorption. The cells were then incubated with the appropriate primary antibodies (diluted 1:100) and secondary antibodies (diluted 1:500) in PBS containing 10% FBS with or without 0.1% saponin. For cell macropinosome visualization, 24 hrs after seeding, the cells were serum starved for 18 hrs. Macropinosomes were marked using a high-molecular-mass (70 KD) TMR-Dextran (Invitrogen)-uptake assay, wherein TMR-DEX was added to serum-free medium at a final concentration of 1 mg/ml for 30 min at 37° C. At the end of the incubation period, the cells were rinsed five times in cold PBS and immediately fixed in 4% PFA. For tissue macropinosome visualization^45, fresh pancreata were cut into pieces with an approximate 5-mm cuboidal shape. […]
Quantification and statistics. To quantify the number of LC3 puncta, a total of 30 cells were recorded and analyzed using the LAS X measurement program on the TCS SPE Leica. Macropinosomes were quantified by using the ‘Analyze Particles’ feature in ImageJ (National Institutes of Health). […]

MIA PaCa-2 cells [2] = assay: Cell viability assay (CCK-8); type: cell-based, human
Experimental: Cell viability assay. Cell viability was determined with Cell Counting Kit-8 assay (CCK-8 assay kit, Glpbio). Cells were plated in 96-well plates at a density of 3000 cells (MIA PaCa-2) or 1500 cells (KC6141) per well and incubated overnight prior to treatment. EIPA (10 μM), MRT68921 (600 nM) or erlotinib (2 μM, Sigma) were added to the wells for 72 and 96 hrs. Next, 10 μL of CCK-8 was added to each well. The optical density was read at 450 nm using a microplate reader (FilterMax F5, Molecular Devices, USA) at day 0, 1, 2, 3, and 4. For glutamine-deprivation assays, cells in 96-well plates were rinsed briefly in PBS and incubated in the 0.2 mM glutamine. Glutamine-free DMEM medium was supplemented with 0.2 mM glutamine in the presence of 10% dialysed FBS and 25 mM HEPES. For some conditions, the medium was supplemented with a final concentration of 2% BSA (Fraction V, fatty-acid-, nuclease and protease-free, Calbiochem). For all experiments, media were replaced every 24 hrs. Viable cell counts were obtained using CCK-8 assay described as above.
(§1) In some embodiments, cells were plated in 96-well plates coated with or without ECM at a density of 3000 cells (MIA PaCa-2, 1444, 1305, COLO 357/FG) or 1500 cells (KC6141) per well and incubated overnight prior to treatment. EIPA (10.5 μM), IPI549 (600 nM), MBQ-167 (500 nM), MRT68921 (600 nM) or erlotinib (2 μM, Sigma), ML385 (10 μM, Sigma), HCQ (10 μM or 80 μM) or their combinations were added to the wells for 24, 72 or 96 hrs. Next, 10 μL of CCK-8 was added to each well. The optical density was read at 450 nm using a microplate reader (FilterMax F5, Molecular Devices, USA) at day 0, 1, 2, 3, and 4. For glutamine-deprivation assays, cells in 96-well plates were rinsed briefly in PBS and incubated in the 0.2 mM glutamine. Glutamine-free DMEM medium was supplemented with 0.2 mM glutamine in the presence of 10% dialyzed FBS and 25 mM HEPES. For glucose-deprivation assays, cells in 96-well plates were rinsed briefly in PBS and incubated in the 0.5 mM glucose. Glucose-free DMEM medium was supplemented with 0.5 mM glucose in the presence of 10% dialyzed FBS and 25 mM HEPES. For some conditions, the medium was supplemented with a final concentration of 2% BSA (Fraction V, fatty-acid-, nuclease and protease-free, Calbiochem). For all experiments, media were replaced every 24 hrs. Viable cell counts were obtained using CCK-8 assay described as above.

MIA PaCa-2 cells [3] = assay: Immunoblot of p62 and LC3 (autophagic degradation); type: cell-based, human; conditions: MIA PaCa-2 cells, 10-40 μM HCQ
Experimental: Autophagy Induction. […] For starvation, cells were incubated in starvation medium (20 mM HEPES pH 7.4, 140 mM NaCl, 1 mM CaC2, 1 mM MgCl2, and 1% BSA) for 1.5 or 2 hrs. For glucose starvation, cells were washed three times with PBS and incubated in glucose-free DMEM containing 10% dialyzed FBS for 4 hrs. Immunoblot and immunoprecipitation. Cells were harvested and lysed in RIPA buffer (50 mM Tris-HCl, pH 7.4, 150 mM NaCl, 1% Triton X-100, 1% Na deoxycholate, 0.1% SDS, 1 mM EDTA) supplemented with complete protease inhibitor cocktail. Proteins were resolved on SDS-polyacrylamide gels, and then transferred to a polyvinylidene difluoride membrane. After blocking with 5% (w/v) fat free milk, the membrane was stained with the corresponding primary antibodies followed by incubation with the appropriate secondary HRP-conjugated antibodies, and development with ECL. Immunoreactive bands were detected by automatic X-ray film processor or KwikQuant Imager.

MIA PaCa-2 cells [4] = assay: TMR-DEX macropinosome uptake assay; type: cell-based, human
Experimental: Cell imaging. Immunostaining was performed as described^44. Cells were cultured on coverslips and fixed in 4% PFA for 10 min at room temperature. After washing twice in PBS, cells were incubated in PBS containing 10% FBS to block nonspecific sites of antibody adsorption. The cells were then incubated with the appropriate primary antibodies (diluted 1:100) and secondary antibodies (diluted 1:500) in PBS containing 10% FBS with or without 0.1% saponin. For cell macropinosome visualization, 24 hrs after seeding, the cells were serum starved for 18 hrs. Macropinosomes were marked using a high-molecular-mass (70 KD) TMR-Dextran (Invitrogen)-uptake assay, wherein TMR-DEX was added to serum-free medium at a final concentration of 1 mg/ml for 30 min at 37° C. At the end of the incubation period, the cells were rinsed five times in cold PBS and immediately fixed in 4% PFA. For tissue macropinosome visualization^45, fresh pancreata were cut into pieces with an approximate 5-mm cuboidal shape. A tissue section was placed in a 24-well plate and injected 150 μL of 10 mg/ml TMR-DEX solution directly into the tissue piece. Another 250 μL of diluted TMR-DEX solution were added to the well to immerse the tissue section. The plate was incubated in the dark for 15 min at room temperature. Then the tissue section was rinsed twice in PBS before embedding in O.C.T. compound in a prelabeled cryomold. Specimens were frozen on dry ice and stored at −80° C. for further processing. Immunostaining was performed as described above. Images were captured using a TCS SPE Leica confocal microscope (Leica, Germany).
In some embodiments, Immunostaining was performed as described (Su et al., 2017). Cells were cultured on coverslips and fixed in 4% PFA for 10 min at room temperature or methanol for 10 min at −20° C. After washing twice in PBS, cells were incubated in PBS containing 10% FBS to block nonspecific sites of antibody adsorption. The cells were then incubated with the appropriate primary antibodies (diluted 1:100) and secondary antibodies (diluted 1:500) in PBS containing 10% FBS with or without 0.1% saponin. For cell macropinosome visualization, 24 hrs after seeding, the cells were serum starved for 18 hrs. Macropinosomes were marked using a high-molecular-mass (70 KDa) TMR-DEX (Invitrogen)-uptake assay, wherein TMR-DEX was added to serum-free medium at a final concentration of 1 mg/ml for 30 min at 37° C. At the end of the incubation period, the cells were rinsed five times in cold PBS and immediately fixed in 4% PFA. For tissue macropinosome visualization (Lee et al., 2019), fresh pancreata were cut into pieces with an approximate 5-mm cuboidal shape. Tissue fragments were placed in a 24-well plate and injected with 150 μL of 10 mg/ml TMR-DEX solution. Another 250 μL of diluted TMR-DEX solution were added to the well to immerse the tissue fragment. The plate was incubated in the dark for 15 min at room temperature. Then the tissue fragments were rinsed twice in PBS before embedding in O.C.T. compound in a prelabeled cryomold. Specimens were frozen on dry ice and stored at −80° C. for further processing. Immunostaining was performed as described above. Images were captured using a TCS SPE Leica confocal microscope (Leica, Germany).
Quantification and statistics. To quantify the number of LC3 puncta, a total of 30 cells were recorded and analyzed using the LAS X measurement program on the TCS SPE Leica. Macropinosomes were quantified by using the ‘Analyze Particles’ feature in ImageJ (National Institutes of Health). Macropinocytic uptake index was computed by determining the total macropinosome area in relation to the total cell area for each field and then by determining the average across all the fields (at least 6 fields). These measurements were done on randomly-selected fields of view. Two-tailed unpaired Student's t test was performed for statistical analysis using GraphPad Prism software. […]

BxPC3 cells = assay: TMR-DEX macropinosome uptake assay; type: cell-based, human; conditions: WT and IKKα KO BxPC3 cells (WT KRAS), ML385 10 μM, 24 hrs
Experimental: Cell imaging. […] Cells were cultured on coverslips and fixed in 4% PFA for 10 min at room temperature. After washing twice in PBS, cells were incubated in PBS containing 10% FBS to block nonspecific sites of antibody adsorption. The cells were then incubated with the appropriate primary antibodies (diluted 1:100) and secondary antibodies (diluted 1:500) in PBS containing 10% FBS with or without 0.1% saponin. For cell macropinosome visualization, 24 hrs after seeding, the cells were serum starved for 18 hrs. […] At the end of the incubation period, the cells were rinsed five times in cold PBS and immediately fixed in 4% PFA. For tissue macropinosome visualization^45, fresh pancreata were cut into pieces with an approximate 5-mm cuboidal shape. […]
In some embodiments, to quantify LC3 puncta or LC3-LAMP1 co-localization, a total of 30 cells were recorded and analyzed using the LAS X measurement program on the TCS SPE Leica. Macropinosomes were quantified by using the ‘Analyze Particles’ feature in Image J (National Institutes of Health). […]

[5] = system: 1305 primary human PDAC cells; assay: Cell viability assay (CCK-8); type: cell-based; conditions: IKKα^low 1305 cells, 3 days
Experimental: as §1

MP-related proteins = assay: Immunoblot of MP-related proteins in BxPC3 cells; type: cell-based, human; conditions: WT and IKKα KO BxPC3 cells, ML385 10 μM, 24 hrs
Experimental: Immunoblot and immunoprecipitation. Cells were harvested and lysed in RIPA buffer (50 mM Tris-HCl, pH 7.4, 150 mM NaCl, 1% Triton X-100, 1% Na deoxycholate, 0.1% SDS, 1 mM EDTA) supplemented with complete protease inhibitor cocktail. Proteins were resolved on SDS-polyacrylamide gels, and then transferred to a polyvinylidene difluoride membrane. After blocking with 5% (w/v) fat free milk, the membrane was stained with the corresponding primary antibodies followed by incubation with the appropriate secondary HRP-conjugated antibodies, and development with ECL. Immunoreactive bands were detected by automatic X-ray film processor or KwikQuant Imager.

Row | SMILES | LC3-LAMP1 colocalization (MIA PaCa-2 cells [1]) | synergy in growth inhibition with EIPA or ML385 (MIA PaCa-2 cells [2]; HCQ 10 μM combined with EIPA or ML385) | synergy in growth inhibition with MRT68921 (MIA PaCa-2 cells [2]; HCQ 10 μM combined with MRT68921) | cell growth (MIA PaCa-2 cells [2]; WT and IKKα^Δ MIA PaCa-2 cells, 80 μM HCQ, 3 days) | cell viability (total viable cells relative to vehicle) (MIA PaCa-2 cells [2]; WT and IKKα^Δ MIA PaCa-2 cells, 10 or 80 μM HCQ, 3 days) | autophagic degradation (LC3-II, p62, lysosomal LC3 retention) (MIA PaCa-2 cells [3]) | disruption of MP (MIA PaCa-2 cells [4]; 10 μM HCQ, inferred from lack of synergy with MRT68921) | degradation of MP (DQ-BSA in TMR-DEX macropinosomes) (MIA PaCa-2 cells [4]; MIA PaCa-2 cells, 10, 20, 40, 80 μM HCQ) | MP (TMR-DEX and DQ-BSA co-localization, MP-related protein expression) (MIA PaCa-2 cells [4]; MIA PaCa-2 cells, 10-40 μM HCQ) | MP inhibition (MIA PaCa-2 cells [4]; MIA PaCa-2 cells, HCQ 10-80 μM) | TMR-DEX uptake increased by IKKα ablation (BxPC3 cells) | sensitivity to single agent (cell viability) [5] | MP-related protein expression increased by IKKα ablation (MP-related proteins)
1 | CCN(CCO)CCCC(C)Nc1ccnc2cc(Cl)ccc12 (stereo not shown) [HCQ, hydroxychloroquine] | enhanced LC3-LAMP1 colocalization in a concentration-dependent manner | synergized | did not synergize | inhibited cell growth | suppression of cell viability | inhibited autophagic degradation | barely disrupted MP | induced the degradation of MP at 10 μM, 20 μM, 40 μM, but not at 80 μM | stimulated MP | inhibited MP only at 80 μM |  |  | 
2 | Cc1ccccc1C(=O)N1CCc2cc(-c3nc(NC(=O)Cc4ccc5c(c4)OCO5)sc3C)ccc21 [ML385] |  |  |  |  |  |  |  |  |  |  | blocked this effect | very sensitive | blocked this effect

— patent US12458630B2, “Combination therapy for cancer” (The Regents of the University of California, priority 2020, dated 2025)
